The values below come from patent US20050037033A1, “Microbicidal compositions and methods and use” (priority 2003, published 2005).

Data set [1] deals with HIV-IRF. The data set can be described thus: PC assay (cells pre-treated with compound, washed, then virus). The following applies: Human immunodeficiency virus 1, PM1, read-out: 50% Effective Concentrations (IC50). Format: cell-based. The method, then: PC assay: Indicator T cells (PM-1; 10^5/well) were pre-treated with compound for 1 hour at 37° C., compound was removed by washing with 4 volumes of PBS, treated cells were added to immobilized virus (HIV-IRF; 10^3 TCID50) and incubated for 8 days.
(§1) In each of the assays above, viral replication was monitored after 8 days by measuring reverse transcriptase activity.

For data set [2], the system named is HIV-IRF. The data set is described as follows: PV-L assay (virus mixed with compound, then cells, no washing). The class given is cell-based. The following applies: Human immunodeficiency virus 1, PM1, Series 1, PV-L: HIV-IRF mixed with compound 1 hour, then PM-1 cells, 8 days, reverse transcriptase activity, read-out: 50% Effective Concentrations (IC50). Here is the method:
PV-L assay: Immobilized virus (HIV-IRF; 10^3 TCID50) was mixed with compound for 1 hour at 37° C. before addition of indicator T cells (PM-1; 10^5/well) and incubated for 8 days (no washing).
as §1

Data set [3] relates to HIV-1 strain III-B (X4 strain). The data set can be described thus: Viral entry/binding inhibition assay (VBI), strain IIIB. Format: cell-based. The following applies: Human immunodeficiency virus 1, Series 2, P4-R5 cells, 2 hour incubation, read-out: 50% Effective Concentrations (IC50). The method, then:
Viral entry inhibition assay (VBI): Cell-free HIV-1 (strain III-B: X4 strain; or strain BaL: R5 strain) was incubated with compound and P4-R5 cells for 2 hours at 37° C., followed by washing and 48 hour incubation.

In data set [4] the test system is HIV-1 infected SupTi cells (strain IIIB). The data set is described as follows: Cell to cell transmission assay (CTC). Format: cell-based. The note with it: Human immunodeficiency virus 1, IIIB, Series 2, P4-R5 cells, 2 hour incubation, read-out: 50% Effective Concentrations (IC50). Here is the method: Cell to cell transmission assay (CTC): HIV-1 infected SupTi cells (strain IIIB), killed prior to exposure, were incubated with compound and P4-R5 cells for 2 hours at 37° C., followed by washing and 48 hour incubation.

Data set [5] concerns Gardnerella vaginalis. The data set can be described thus: Anaerobe inhibition assay. Format: cell-based. The note with it: 2 strains, read-out: Minimum Inhibitory Concentrations (MICs).
Data set [6] concerns Mobiluncus mulieris. The data set can be described thus: Anaerobe inhibition assay. Format: cell-based. The following applies: 2 strains, read-out: Minimum Inhibitory Concentrations (MICs).
For data set [7], the system named is Clost perfringes. The data set is described as follows: Anaerobe inhibition assay. The class given is cell-based, Clostridium perfringes. The note with it: Clostridium, 2 strains, read-out: Minimum Inhibitory Concentrations (MICs). Here is the method:
Working in an anaerobic chamber, the anaerobes were suspended into brucella broth to the turbidity of the 0.5 McFarland standard and pipetted into the wells of the Steers replicator head, removed from the chamber and stamped onto the supplemented Brucella agar plates containing the serial dilutions of the antimicrobials and the growth control plates. The final inoculum was 10^5 cfu/spot.
(§2) The anaerobes were incubated in an anaerobic chamber at 37° C. for 2 days; aerobes were incubated in ambient air at 36° C. for 20h.

Data set [8] deals with Fuso. nucleatum. The data set is described as follows: Anaerobe inhibition assay. The class given is cell-based. The following applies: Fusobacterium nucleatum, 2 strains, read-out: Minimum Inhibitory Concentrations (MICs).
The test system of data set [9] is Porphyromonas levii. The data set is described as follows: Anaerobe inhibition assay. The class given is cell-based. The following applies: 2 strains, read-out: Minimum Inhibitory Concentrations (MICs).
Data set [10] has as its system Prevotella intermedia. The data set can be described thus: Anaerobe inhibition assay. The class given is cell-based. The following applies: 2 strains, read-out: Minimum Inhibitory Concentrations (MICs).
Data set [11] concerns Staph. aureus. The data set can be described thus: Aerobe inhibition assay. The class given is cell-based, Staphylococcus aureus. The note with it: 3 strains. Here is the method:
The aerobic organisms were suspended into saline to the turbidity of the 0.5 McFarland standard, diluted 1:10, pipetted into the wells of the Steers replicator head, and stamped onto the Mueller Hinton agar plates containing the serial dilutions of the antimicrobials.
as §2

The subject of data set [12] is Gardnerella vaginalis, Mobiluncus spp., Bacteroides spp., Clostridium perfringes, Fusobacterium nucleatum, Peptostreptococcus spp., Porphyromonas spp., and …. The data set can be described thus: Anaerobe inhibition assay, all anaerobes tested. The class given is cell-based.
Data set [13] can be described thus: Cytotoxicity assay. Format: cell-based. The note with it: human, HeLa cells. Here is the method:
(§3) The cells listed in Table 4 were incubated for the indicated period of time with different concentrations of ciclopiroxolamine and cell viability was measured by the 3-(4,5-dimethylthiazol-2-yl)-2,5-diphenyltetrazolium bromide (MTT) assay or by treatment with propidium iodide and fluorescence. Percent viability was calculated with respect to the viability of mock-exposed cells (cells incubated without compounds).
In the MTT assay, the effect of each agent on cell viability was determined using an assay in which dehydrogenases in viable cells cleave the compound 3-(4,5-dimethylthiazol-2-yl)-2,5-diphenyltetrazolium bromide (MTT), yielding a purple product (formazan) which can be measured spectrophotometrically (Pauwels et al., 1988). Cells were seeded into 96 well plates at a density of 3×10^4 cells/well 24 hours prior to introduction of the microbicides. Agents were diluted in as previously indicated. Agents were added to triplicate wells in half-log serial dilutions. […] At the conclusion of each experiment, cells were washed, replenished with fresh medium and incubated with MTT (250 μl/well) for 2 hours at 37° C. […] In this assay, measured absorbance is proportional to the viable cell number, and inversely proportional to the degree of cytotoxicity.

Data set [14] can be described thus: Cytotoxicity assay. Format: cell-based. Here is the method:
as §3
In the MTT assay, the effect of each agent on cell viability was determined using an assay in which dehydrogenases in viable cells cleave the compound 3-(4,5-dimethylthiazol-2-yl)-2,5-diphenyltetrazolium bromide (MTT), yielding a purple product (formazan) which can be measured spectrophotometrically (Pauwels et al., 1988). Cells were seeded into 96 well plates at a density of 3×10^4 cells/well 24 hours prior to introduction of the microbicides. Agents were diluted in as previously indicated. Agents were added to triplicate wells in half-log serial dilutions. Cells were incubated in the absence or presence of each agent at 37° C. under 5% CO2 and 90% humidity for 2 hours. At the conclusion of each experiment, cells were washed, replenished with fresh medium and incubated with MTT (250 μl/well) for 2 hours at 37° C. Following removal of the medium (by aspiration), intracellular formazan crystals were solubilized with 10% Triton X-100 in acidified isopropanol. The resulting solutions were assayed spectrophotometrically at 570 nm and corrected for non-specific absorption at 690 nm. In this assay, measured absorbance is proportional to the viable cell number, and inversely proportional to the degree of cytotoxicity.

Usually CC50 stands for the concentration giving 50% cytotoxicity. A higher CC50 goes with lower toxicity to the cells. As to `Cc1cc(C2CCCCC2)n(O)c(=O)c1.NCCO` [CO, 6-Cyclohexyl-1-hydroxy-4-methyl-2-(1H)-pyridone ethanolamine salt], the IC50 in data set [1] amounted to 0.96 µg/mL; in [2], 1.46 µg/mL; in data set [3], 45.5 µg/mL; in data set [4], 97.4 µg/mL. Further, the MIC in [5] came to 80 µg/mL; in data set [6], 40 µg/mL; in [7] it was 40 µg/mL; in data set [8] it was 40 µg/mL; in data set [9], 40 µg/mL; in data set [10], 40 µg/mL. Also, the MIC in data set [11] (Staphylococcus aureus, read-out: Minimum Inhibitory Concentrations (MICs)) came out at 40 µg/mL. Besides, the “Minimum Inhibitory Concentrations (MICs)” value in data set [11] came to 80 µg/mL. In addition, the “minimal inhibitory concentrations (MICs), range over all anaerobes tested” value in [12] is 40 to 80 µg/mL. Also, the CC50 at 1 h in data set [13] (Series 1, Original material, 1 hour incubation, 100 μg/ml highest conc tested) was more than 100 µg/mL; in data set [13] (Series 3, 1 hour incubation), 859 µg/mL. The CC50 at 2 h was more than 200 µg/mL in data set [14] (African green monkey, Vero cells, Series 4, 2 hour incubation); more than 100 µg/mL in [14] (human, P4-R5 cells, Series 2, P4-R5, 2 hour incubation, 100 μg/ml highest conc tested); 100 µg/mL in [14] (human, VK-2/E6E7 cells (vaginal epithelium cell line), Series 2, VK-2/E6E7, 2 hour incubation).
